Assays:
[1] = system: patients with major depressive disorder; assay: MADRS assessment, NCT04673383 Part B, IV infusion over about 10 minutes; type: in vivo, human; parameters: average percent reduction from baseline (MADRS) / Mean % reduction (MADRS): concentration or dose not given beside the values
Excerpt: Therapeutic benefit or efficacy may be assessed using a rating scale. For patients with a depressive disorder such as MDD or TRD, the Montgomery-Asberg Depression Rating Scale (MADRS), the Hamilton Depression Rating Scale (HAMD-17) or the Beck's Depression Inventory (BDI-II) may be used. The rating scale is used prior to administration of the psychedelic agent, to provide a baseline assessment, and again after administration of the psychedelic agent.
(§1) A double-blind, randomised, placebo-controlled study of intravenous doses of DMT fumarate, was carried out in patients with major depressive disorder, MDD, (ClinicalTrials.gov Identifier: NCT04673383, Part B). The protocol comprised the steps of:
• MADRS assessment by an independent assessor
(§2) • Administration of either a placebo or a dose of DMT fumarate by continuous intravenous infusion over a dosing period of about 10 minutes. • Tolerability assessment following cessation of the psychedelic experience. Study Day 8 (±1 day), Study Day 15 (±1 day) • MADRS assessment
• Administration of a dose of DMT fumarate by continuous intravenous infusion over a dosing period of about 10 minutes. • Tolerability assessment following cessation of the psychedelic experience. Study Day 22 (+1 day), Study Day 29 (+2 days), Day 45 (+2 days), Day 105 (+2 days) • MADRS assessment
(§3) The administration of the study drug, DMT fumarate, in NCT04673383, Part B was in accordance with the present invention. Group A received one dose of active (DMT fumarate) on Day 1 and were assessed using MADRS at Day 8 and Day 15. Group P received a placebo on Day 1, and were also assessed at Day 8 and Day 15. This comprised the blinded phase of the study. Group P subsequently received one dose of active in the open label phase of the study on Day 15 and were assessed at Day 22 and 29. Data from this group following administration of the active dose is represented as PA.
As described above, Group A received one dose of active (DMT fumarate) on Day 1 and were assessed at Day 8 and Day 15. Group P received a placebo on Day 1, and were also assessed at Day 8 and Day 15.

[2] = Drug related serious adverse events, NCT04673383; type: in vivo, human; settings: reported at the date of filing
Protocol: A double-blind, randomised, placebo-controlled study of intravenous doses of DMT fumarate, was carried out in patients with major depressive disorder, MDD, (ClinicalTrials.gov Identifier: NCT04673383, Part B).

[3] = system: patients with major depressive disorder; assay: Warwick-Edinburgh Mental Wellbeing Scale (WEMWBS), NCT04673383 Part B; type: in vivo, human
Protocol: as §1
(§4) • Administration of either a placebo or a dose of DMT fumarate by continuous intravenous infusion over a dosing period of about 10 minutes. • Tolerability assessment following cessation of the psychedelic experience. Study Day 8 (±1 day), Study Day 15 (±1 day) • MADRS assessment […]
as §3, with “This comprised the blinded phase of the study.” left out, “Data from this group following administration of the active dose is represented as PA.” left out
Further, a rapid and sustained improvement in wellbeing was observed following administration of at least one dose of DMT fumarate in accordance with the invention, with supportive therapy, as measured by the Warwick-Edinburgh Mental Wellbeing Scale (“WEMWBS”).

[4] = system: patients with major depressive disorder; assay: Beck Depression Inventory (BDI), NCT04673383 Part B; type: in vivo, human
Protocol: as §1, §4
as §3, with “This comprised the blinded phase of the study.” left out, “Data from this group following administration of the active dose is represented as PA.” left out
Analysis of patient-reported depression scores corroborated the MADRS assessments conducted by independent clinical raters. Improvements in depression scores from baseline were observed across all study timepoints in patients receiving at least one dose of active, as measured by the Beck Depression Inventory (“BDI”). […]

[5] = system: patients with major depressive disorder; assay: State-Trait Anxiety Inventory-Trait (STAI-T), NCT04673383 Part B; type: in vivo, human
Protocol: as §1, §2
• Administration of a dose of DMT fumarate by continuous intravenous infusion over a dosing period of about 10 minutes. • Tolerability assessment following cessation of the psychedelic experience. […]
as §3, with “This comprised the blinded phase of the study.” left out, “Data from this group following administration of the active dose is represented as PA.” left out
Measures assessing patients' anxiety and wellbeing, areas which are often negatively impacted by depression, were also analysed across the study. […]

healthy adults [6] = assay: Tolerability question after psychedelic experience, NCT04673383 Part A; type: in vivo, human; settings: all healthy volunteers, highest doses tested
Excerpt: Tolerability may be assessed following cessation of the subjective psychedelic experience by asking the patent the question ‘Do you wish you had not gone through that experience?’ Yes responses are deemed to indicate poor tolerability, while No responses are deemed to indicate good tolerability.
All patient participants in this study, after receiving one dose of DMT fumarate, answered NO to the question ‘Do you wish you had not gone through that experience?’, indicating good tolerability of the psychedelic agent. In Part A of the same study, healthy adults received single escalating doses of DMT fumarate. All healthy volunteers answered “no” to the same question at the highest doses tested.

healthy adults [7] = assay: Challenging Experience Questionnaire (CEQ), NCT04673383 Part A; type: in vivo, human; settings: active group, healthy participants
Excerpt: Garcia-Romeu and Richards (International review of Psychiatry, Vol. 30, 2018, issue 4, pp 291-316) discuss the use of serotonergic hallucinogens in clinical interventions and state ‘issues, such as recent suicidality, drug or alcohol use disorders, dissociative disorders, and past history of trauma should be taken into account depending on the therapeutic target, as these may be exacerbated by high-dose psychedelic administration or increase risk for adverse events. ‘They further state: Psychodynamic-autobiographical experiences are predominated by emotional recollections and reflections on significant previous or current life events and relationships. […] A patient's subjective experience may be evaluated by the Challenging Experience Questionnaire (CEQ), a questionnaire designed to measure challenging psychological experiences associated with a psychedelic experience. […]
The participant's experience was evaluated using the Challenging Experience Questionnaire (CEQ). In Part A of the study, a mean CEQ score of 0.172 was recorded for the active group, compared with a mean of 0.052 for the placebo group. […]

[8] = system: patients with major depressive disorder; assay: Challenging Experience Questionnaire (CEQ), NCT04673383 Part B; type: in vivo, human
Excerpt: Garcia-Romeu and Richards (International review of Psychiatry, Vol. 30, 2018, issue 4, pp 291-316) discuss the use of serotonergic hallucinogens in clinical interventions and state ‘issues, such as recent suicidality, drug or alcohol use disorders, dissociative disorders, and past history of trauma should be taken into account depending on the therapeutic target, as these may be exacerbated by high-dose psychedelic administration or increase risk for adverse events. ‘They further state: Psychodynamic-autobiographical experiences are predominated by emotional recollections and reflections on significant previous or current life events and relationships. […] A patient's subjective experience may be evaluated by the Challenging Experience Questionnaire (CEQ), a questionnaire designed to measure challenging psychological experiences associated with a psychedelic experience.
as §3, with “This comprised the blinded phase of the study.” left out, “Data from this group following administration of the active dose is represented as PA.” left out

[9] = system: 3 healthy volunteers and 6 patients; settings: 0.3 mg/kg, IV bolus; cited from earlier work
healthy participants = assay: Perceived duration of the psychedelic experience; type: in vivo, human; settings: 9 mg IV
Excerpt: The onset and cessation of the psychedelic experience may be assessed by the attending clinician, psychiatrist or therapist. ‘Duration of the psychedelic experience’ as used herein refers to the time from the start of the continuous parenteral administration to the cessation of the psychedelic experience. The duration of the psychedelic experience may vary between patients. The term ‘duration’ as used herein, encompasses the mean duration of the psychedelic experience.
The safety and tolerability of a single intravenous dose of a deuterated analogue of DMT is being investigated in healthy participants in an on-going clinical trial. The administration of the deuterated analogue of DMT is in accordance with the present invention. Tolerability is assessed post-psychedelic experience by the question ‘Do you wish you had not gone through that experience?’.
A 9 mg dose of the deuterated analogue was administered in accordance with the present invention to a cohort of 6 psychedelic-experienced healthy participants. Preliminary data were compared with pharmacokinetic data from Part A of NCT04673383, Cohort 1 (9 mg DMT fumarate).
IRVAS is a rating scale which measures the intensity of the psychedelic experience. Additionally, the perceived duration of the psychedelic experience was in the range 37-57 minutes for the deuterated analogue, compared with approximately 25 minutes for DMT.

[10] = system: patients with major depressive disorder; assay: D'Souza et al. HAMD-17 scores; type: in vivo, human; settings: 1 day after final administration of 0.1 and 0.3 mg/kg doses
Protocol: D'Souza et al report an ‘exploratory study of the dose-related safety, tolerability, and efficacy of dimethyltryptamine (DMT) in healthy volunteers and major depressive disorder’ (D. C. D'Souza, S. A. Syed, L. T. Flynn, H. Safi-Aghdam, N. V. Cozzi and M. Ranganathan, Neuropsychopharmacology (2022) 47:1854-1862). Seven patients with major depressive disorder received two doses of DMT hemifumarate (0.1 mg/kg, followed by 0.3 mg/kg) at least 48 hours apart. The participants were administered DMT by intravenous push over 30-60 seconds, i.e., a bolus injection.
D'Souza et al report that the mean change in HAMD-17 scores between baseline (7 subjects) and 1 day after final administration of both a 0.1 mg/kg and a 0.3 mg/kg dose (6 subjects) was −4.5 (Table S6). This improvement approximates to an improvement on the MADRS scale of −3.9.

[11] = system: healthy volunteer participants; settings: all three healthy volunteers, 0.3 mg/kg, IV bolus; cited from earlier work
[12] = system: patients with major depressive disorder; settings: baseline (7 subjects) vs 1 day after final administration of 0.1 mg/kg and 0.3 mg/kg doses (6 subjects); cited from earlier work
healthy volunteers = settings: single oral dose, interim analysis; cited from earlier work
[13] = Group PA, 2 weeks, study Day 29
[14] = day 8, blinded data for all patients (average of placebo and DMT fumarate patients)
[15] = Group PA, open label phase, Day 105

## CN(C)CCc1c[nH]c2ccccc12.O=C(O)/C=C/C(=O)O [DMT fumarate, N,N-dimethyltryptamine fumarate]
[1]; Day 8, active vs placebo, p=0.002
  difference in mean change from baseline (MADRS) between Group A and Group P: −10.8 points
[1]; Day 15, active vs placebo, p=0.02
  difference in mean change from baseline (MADRS) between Group A and Group P: −7.4 points
[1]; Group A, 1 week from active dose, study Day 8
  Mean change from baseline (MADRS): −12.7
[1]; Group A, 1 week, study Day 8
  % of subjects with a MADRS score ≤ 10: 43.8%
  % of subjects with ≥ 50% reduction from BL (MADRS): 43.8%
  Mean % reduction (MADRS): −48.2%
[1]; Group A, 2 weeks from active dose, study Day 15
  Mean change from baseline (MADRS): −11.0
[1]; Group A, 2 weeks, study Day 15
  % of subjects with a MADRS score ≤ 10: 29.4%
  % of subjects with ≥ 50% reduction from BL (MADRS): 35.3%
  Mean % reduction (MADRS): −41.0%
[1]; Group PA (open label active after placebo), 1 week from active dose, study Day 22
  Mean change from baseline (MADRS): −10.6
[1]; Group PA, 1 week, study Day 22
  % of subjects with a MADRS score ≤ 10: 42.9%
  % of subjects with ≥ 50% reduction from BL (MADRS): 42.9%
  Mean % reduction (MADRS): −40.6%
[1]; Group PA, 2 weeks from active dose, study Day 29
  Mean change from baseline (MADRS): −10.8
[1]; [13]
  % of subjects with a MADRS score ≤ 10: 31.3%
  % of subjects with ≥ 50% reduction from BL (MADRS): 43.8%
  Mean % reduction (MADRS): −36.7%
[1]; Group PA, all open-label study timepoints, p<0.05
  difference in mean total MADRS score, statistical analysis: statistically significant difference
[1]; [14]
  average improvement on the MADRS score: −7.5
  average percent reduction from baseline (MADRS): −18.4%
[2]
  drug related serious adverse events: no drug related serious adverse events
[3]; Active, blinded phase, Day 15 (two-weeks following blinded dose)
  Wellbeing (WEMWBS CFB): 10.1
[3]; [15]
  Wellbeing (WEMWBS CFB): 9.8
[4]; Active, blinded phase, Day 15, p = 0.002 active vs. placebo
  Self-Reported Depression (BDI CFB): −17.4
[4]; [15]
  Self-Reported Depression (BDI CFB): −19.7
[5]; Active, blinded phase, Day 15, p = 0.03 active vs. placebo
  Anxiety (STAI-T CFB): −11.0
[5]; Group PA, open label phase, Day 105 (12-weeks following the open label dose)
  Anxiety (STAI-T CFB): −14.2
Healthy adults [6]
  answer to 'Do you wish you had not gone through that experience?' (tolerability): no
Healthy adults [7]
  mean CEQ score: 0.172
[8]; Group A
  mean CEQ score: 0.360
[8]; Group PA
  mean CEQ score: 0.350

## CN(C)CCc1c[nH]c2ccccc12 [DMT, 2-(1H-indol-3-yl)-N,N-dimethylethanamine]
[9]
  mean score to 'how likely are you to use this drug?' (scale 0 to 100): 22.44
Healthy participants
  perceived duration of the psychedelic experience: approximately 25 minutes
[10]
  improvement on the MADRS scale approximated from HAMD-17 change: ~−3.9
[11]
  tolerability score (0-100, 0=intolerable, 100=well tolerated): greater than 70
[12]
  mean change in HAMD-17 scores: −4.5

## [2H]C([2H])([2H])N(C([2H])([2H])[2H])C([2H])([2H])C([2H])([2H])c1c[nH]c2cccc(O)c12 [CYB003]
Healthy volunteers
  average duration of peak effects: ≈ 2 hours
  time to psychedelic effects: ≤ 15 min
